Where two headings read alike, the source gives them in different places.
Key:
Assay type in all cases: cell-based
RAW 264.7 macrophages = assay: Cytotoxicity (CC50) in RAW 264.7 macrophages
Method: (§1) This experiment was conducted according the reported procedure.

[1] = tested on: LPS-induced nitric oxide (NO) production in RAW264.7 macrophages; assay: Inhibition of LPS-induced NO production in RAW264.7 macrophages (anti-inflammatory assay); settings: LPS-stimulated, read-out: IC50 (μM), anti-inflammatory activity against LPS-stimulated NO production
Method: All isolates were evaluated for their anti-inflammatory activities against LPS-induced NO production in RAW264.7 macrophages (Table 3). […] This experiment was conducted according the reported procedure.

[2] = Cytotoxicity (CC50) in RAW 264.7 macrophages; settings: mouse
Method: as §1

[3] = Mus musculus, RAW264.7, RAW 264.7 macrophages

SMILES: N=C(N)NN [Aminoguanidine, aminoguanidine, reference compound]
- CC50 (RAW 264.7 macrophages): > 50 µM
- IC50 ([1]; RAW 264.7 macrophages): 23.4 µM

SMILES: C[C@H]1CC[C@@H]2[C@H]1C[C@H]([C@@H](C)C(=O)O)CC[C@@]2(C)O [Compound 9, (1R,4S,5S,7R,10R,11R)-10-hydroxyguai-12-oic acid]
- CC50 [2]: > 50 µM
- IC50 [1, 3]: 79.1 µM

SMILES: C[C@H]1C[C@H](O)[C@@H]2[C@H]1C[C@H]([C@@](C)(O)CO)CC[C@@]2(C)O [Compound 10, (1S,2S,4S,5S,7R,10R)-guaiane-2,10,11,12-tetraol]
- CC50 [2]: > 50 µM
- IC50 [1, 3]: 150 µM

SMILES: C=C(C)C1CCC(C)(O)C2CC(O)C(C)C2C1 [Compound 3, (1R,3S,4R,5R,7R,10R)-11(13)-en-3,10-dihydroxyguaiene]
- CC50 (RAW 264.7 macrophages): > 50 µM
- IC50 ([1]; RAW 264.7 macrophages): 113 µM

SMILES: C=C(C)C1CCC(C)(O)C2C(O)CC(C)C2C1 [Compound 5, (1S,2S,4S,5S,7R,10R)-11(13)-en-2,10-dihydroxyguaiene]
- CC50 [2]: > 50 µM
- IC50 [1, 3]: 138 µM

SMILES: C[C@H]1CC[C@@H]2[C@H]1C[C@H]([C@](C)(O)CO)CC[C@@]2(C)O [Compound 11, (1R,4S,5S,7R,10R,11S)-guaiane-10,11,12-triol]
- CC50 [2]: > 50 µM
- IC50 [1, 3]: 141 µM

SMILES: C=C(C)C1CCC(C)(O)C2CCC(C)C2C1 [Compound 2, (1R,4S,5S,7R,10R)-11(13)-en-10-hydroxyguaiene]
- CC50 [2]: > 50 µM
- IC50 [1, 3]: 103 µM

SMILES: C[C@H]1CC[C@@H]2[C@H]1C[C@H]([C@@](C)(O)CO)C[C@@H](O)[C@@]2(C)O [Compound 13, (1R,4S,5S,7S,9R,10S,11R)-guaiane-9,10,11,12-tetraol]
- CC50 [2]: > 50 µM
- IC50 [1, 3]: 88.2 µM

SMILES: C=C(C)C1CCC(C)(O)C2CC(O)C(C)C2C1 [Compound 1, (1R,3R,4R,5S,7R,10R)-11(13)-en-3,10-dihydroxyguaiene]
- CC50 [2]: > 50 µM
- IC50 ([1]; RAW 264.7 macrophages): 310 µM

SMILES: C=C(C)[C@@H]1CC[C@@](C)(O)[C@@H]2CC(=O)[C@H](C)[C@H]2C1 [Compound 4, (1R,4S,5S,7R,10R)-3-oxo-11(13)-en-10-hydroxyguaiene]
- CC50 [2]: > 50 µM
- IC50 [1, 3]: 72.9 µM

SMILES: CC(=O)OCC(C)(O)C1CCC(C)(O)C2C(O)CC(C)C2C1 [Compound 7, (1S,2S,4S,5S,7R,10R,11R)-12-acetyl-2,10,11-trihydroxyguaiane]
- CC50 [2]: > 50 µM
- IC50 [1, 3]: 101 µM

SMILES: C[C@@H]1[C@@H]2C[C@H]([C@](C)(O)CO)CC[C@@](C)(O)[C@@H]2C[C@@H]1O [Compound 12, (1R,3S,4R,5S,7R,10R,11S)-guaiane-3,10,11,12-tetraol]
- CC50 [2]: > 50 µM
- IC50 [1, 3]: 122 µM

SMILES: C[C@](O)(CO)[C@@H]1CC[C@@](C)(O)[C@@H]2CC[C@@](C)(O)[C@@H]2C1 [Compound 8, (1R,4R,5R,7R,10R)-4,10,11-trihydroxyguaiane]
- CC50 [2]: > 50 µM
- IC50 [1, 3]: 166 µM

SMILES: C=C(CO)[C@@H]1CC[C@@](C)(O)[C@H]2[C@@H](C1)[C@@H](C)C[C@@H]2O [Compound 6, (1S,2S,4S,5S,7R,10R)-11(13)-en-2,10,12-trihydroxyguaiene]
- CC50 [2]: > 50 µM
- IC50 [1, 3]: 14.2 µM

— publication PMC5765142, “New anti-inflammatory guaianes from the Atlantic hydrotherm-derived fungus Graphostroma sp. MCCC 3A00421” (Scientific Reports, 2018)
